From patent US4374146A, “Topical inflammatory pharmaceutical formulations” (Burroughs Wellcome Co., priority 1980, dated 1983)
Like-named read-outs stand apart in the source and are kept apart here.

Columns and labels:
[1] = system: hepatic glutathione; experiment: Hepatic glutathione depletion in mouse; format: in vivo; settings: for Hepatic Gluathione Depletion: @ 40% of LD50, i.p. in mouse, over a 5 hr period
[2] = system: yeast-induced hyperthermia; experiment: Yeast-Induced Hyperthermia Assay; format: in vivo, rat; settings: for ED50: po, rat
Source text: The Yeast-Induced Hyperthermia Assay was used according to the procedure described by Khalili-Varasteh et al. in Arch. Int. Pharmacodyn.

[3] = system: methemoglobinemia; experiment: Methemoglobinemia (cyanosis), dog; settings: for Methemoglobinemia (Cyanosis): dog
[4] = system: mouse liver, mouse kidney; settings: in vivo, ip
[5] = system: carrageenin pleurisy in Adrex; experiment: AI activity in Adrex, carrageenin pleurisy p.o.; format: in vivo, rat; settings: CP p.o.; for AI Activity in Adrex, Vol.: exudate volume
Experimental: (§1) A. Carrageenin Pleurisy Assay (CPA)
(§2) Following the procedure described by Vinegar et al. in European J. Rheumatology and Inflammation, 1, 204, (1978) the acute anti-inflammatory activity of the compound of formula (I) was compared with that of known anti-inflammatory drugs. Two assays were performed: in the first, the average 3 hr exudate volume for each drug-treated group was determined and the % inhibition relative to solvent-fed control animals calculated, the ED50 being the dose required to reduce the 3 hr exudate volume by 50%; in the second, the number of mobilized neutrophils was quantified and the % inhibition relative to solvent-fed control animals calculated, the ED50 being the dose required to reduce the number of neutrophils mobilized at 3 hrs by 50%.

[6] = system: rat liver, rat kidney; settings: in vivo, ip
[7] = system: acetic acid writhing; experiment: Acetic Acid Writhing Test (AAWT), mouse; format: in vivo; settings: po, read-out: AAWT ED50
Source text: (§3) A. Acetic Acid Writhing Test (AAWT)
(§4) Using the procedure described by Koster et al. in Fed. Proc. 18, 412 (1959) and Vinegar et al. in Handbook of Experimental Pharmacology, 50-2, ch.

[8] = Acute toxicity assay, mouse; settings: in vivo
[9] = system: carrageenin pleurisy (3 hr exudate volume, mobilized neutrophils); experiment: Carrageenin Pleurisy Assay (CPA); format: in vivo, rat; settings: for ED50: Rattus norvegicus, Neutrophil, po; for CPA Local activity (inactive at stated dose): inactive at 1.0 mg/rat
Experimental: as §1, §2

[10] = Acute toxicity assay, rat; settings: in vivo
Experimental: Four non-fasted male rats of 160-250 gram body weight were used for each dose level. The compound was injected by the indicated route and the symptom onset time, the intensity of the effect and the duration during a 4 hour observation period are recorded. The LD50 estimated is based on a 7 day observation and is determined by the method of Miller and Tainter (Proc. Soc. Exp. Biol. Med. 57:261, 1944).

[11] = system: trypsin hyperalgesia, rat hindlimb; experiment: Trypsin Hyperalgesic Assay (THA), rat hindlimb; format: in vivo; settings: for ED50: po, read-out: THA ED50; for Duration of Analgesia, time in hours to reduce -1.5 × THA ED50 to 40% inhibition: rat
Source text: B. Trypsin Hyperalgesic Assay (THA)

[12] = system: methemoglobinemia; experiment: Methemoglobinemia (cyanosis), rat; settings: for Methemoglobinemia (Cyanosis): rat, @ 500 mg/kg p.o.
[13] = system: acetic acid writhing; experiment: Acetic Acid Writhing Test (AAWT), rat; format: in vivo; settings: po, read-out: AAWT ED50
Source text: as §3, §4

[14] = system: gastric damage; experiment: Gastric damage in the rat; format: in vivo
[15] = system: hot plate analgesia; experiment: Hot plate assay for strong analgesic activity; settings: in vivo
[16] = system: opiate receptors; experiment: Opiate receptor binding in vitro
[17] = system: lipoxygenase; experiment: Lipoxygenase inhibition; format: biochemical
[18] = system: mouse liver, mouse kidney; experiment: Histopathology, mouse liver and kidney
[19] = system: platelet aggregation; experiment: Platelet aggregation inhibition
[20] = system: rat liver, rat kidney; experiment: Histopathology, rat liver and kidney; settings: for Histopathology, Rat Kidney / Histopathology, Rat Liver: @ 40% LD50, i.p.
[21] = system: analgesic activity (naloxone); experiment: Naloxone antagonism of analgesic activity; settings: in vivo
[22] = system: prostaglandin synthetase; experiment: Prostaglandin synthetase inhibition; format: biochemical
[23] = system: gastric damage; experiment: Gastric damage (general statement); settings: in vivo
[24] = system: peroxidase; experiment: Peroxidase inhibition; format: biochemical
[25] = dose reducing 3 hr exudate volume by 50%, read-out: CPA ED50, Vol.

With `CC(=O)Nc1ccc(O)cc1` [Acetaminophen] the “Hepatic Gluathione Depletion” value [1] was “+ (90% depletion over a 5 hr period)”, the ED50 [2] was 72 ± 8.6 mg/kg and the “Methemoglobinemia (Cyanosis)” value ([3]; @ 100 mg/kg p.o.) was “No”. The “Histopathology, Mouse Kidney” value [4] was “+”, the “Histopathology, Mouse Liver” value [4] was “+” and the “AI Activity in Adrex, Cells” value [5] was “Weakly Active”. For the same compound, the “AI Activity in Adrex, Vol.” value [5] was “Active”, the “Histopathology, Rat Kidney” value [6] was “+” and the “Histopathology, Rat Liver” value [6] was “+”. The ED50 ([7]; mouse, p.o.) was 301 ± 11.5 mg/kg, the LD50 at 168 h ([8]; ip) was 880 mg/kg and the LD50 at 168 h ([8]; po) was 1640 mg/kg. The “Duration of AI Activity, time in hrs to reduce 2 × CP cell ED50 to 40% inhibition of Vol.: Cells” value [9] was 3.8 h, the ED50 [9, 25] was 172 ± 22.4 mg/kg and the “Duration of AI Activity, time in hrs to reduce 2 × CP cell ED50 to 40% inhibition of Vol.: Vol.” value [9] was 2.2 h. For the same compound, the “CPA Local activity (inactive at stated dose)” value (“CPA Local activity” below) ([9]; local) was “Inactive”, the LD50 at 168 h ([10]; ip) was 1640 mg/kg and the ED50 ([11]; rat hindlimb, p.o.) was 95 ± 17.2 mg/kg. The “Methemoglobinemia (Cyanosis)” value [12] was “No”.

In the case of `CC(=O)Oc1ccccc1C(=O)O` [Aspirin], the ED50 [2] is reported as 50 ± 8.1 mg/kg, the “AI Activity in Adrex, Cells” value [5] is reported as “Inactive” and the “AI Activity in Adrex, Vol.” value [5] is reported as “Active”. The ED50 ([13]; Rattus norvegicus) was 21 ± 3.4 mg/kg, the “Gastric damage in the rat” value ([14]; single oral dose of 30 mg/kg) was “produces ulcers and haemorrhages” and the ED50 ([7]; Mus musculus) was 301 ± 21.1 mg/kg. For the same compound, the LD50 at 168 h ([8]; ip) was 220 mg/kg, the LD50 at 168 h ([8]; po) was 1100 mg/kg and the “Duration of AI Activity, time in hrs to reduce 2 × CP cell ED50 to 40% inhibition of Vol.: Cells” value [9] was 3.0 h. The ED50 ([9]; 3 h, read-out: CPA ED50, Cells) was 75 ± 7.5 mg/kg, the ED50 ([9]; 3 h, read-out: CPA ED50, Vol.) was 28 ± 3.2 mg/kg and the “Duration of AI Activity, time in hrs to reduce 2 × CP cell ED50 to 40% inhibition of Vol.: Vol.” value [9] was 35.0 h. For the same compound, the “CPA ED50, Local” value ([9]; local) was 0.04 mg/rat, the LD50 at 168 h ([10]; ip, 7 day observation) was 500 mg/kg and the “Activity in trypsin hyperalgesic assay” value [11] was “essentially inactive”. For the same compound, the “THA activity (inactive at stated dose)” value ([11]; rat hindlimb, p.o., inactive at 360 mg/kg) was “Inactive”.

With `COc1ccc2c3c1O[C@H]1[C@@H](O)C=C[C@H]4[C@@H](C2)N(C)CC[C@@]341` [Codeine] the “Activity in hot plate assay for strong analgesic activity” value (from here on “Activity in hot plate assay”) [15] was “active”.

In the case of `CC(=O)Nc1ccc2c(c1)OCO2` [Compound of formula (I), N-(1,3-benzodioxol-5-yl)acetamide], the “Binding to opiate receptors in vitro” value [16] is reported as “does not bind to opiate receptors in vitro”, the “Depletion of hepatic glutathione” value ([1]; mouse) is reported as “not been shown” and the ED50 [2] is reported as 57 mg/kg. For the same compound, the “Antipyretic activity in the rat” value ([2]; yeast-induced hyperthermia) was “comparable with aspirin and phenacetin”, the Lipoxygenase inhibition [17] was “is not a prostaglandin synthetase, lipoxygenase or peroxidase inhibitor” and the “Histopathological evidence of hepatic or renal damage” value ([18]; mouse) was “not been shown to produce histopathological evidence of hepatic or renal damage”. The Platelet aggregation inhibition [19] was “does not produce the gastric damage or platelet aggregation inhibition”, the “Methemoglobinemia (Cyanosis)” value ([3]; @ 200 mg/kg p.o.) was “Slight” and the Methemoglobinaemia ([3]; dogs, high dose levels) was “has produced methemoglobinaemia in dogs at high dose levels”. The “AI Activity in Adrex, Cells” value [5] was “Active”, the “AI Activity in Adrex, Vol.” value [5] was “Active” and the “Histopathology, Rat Kidney” value [20] was “-”. For the same compound, the “Histopathology, Rat Liver” value [20] was “-”, the “Histopathological evidence of hepatic or renal damage” value ([20]; rat) was “not been shown to produce histopathological evidence of hepatic or renal damage” and the “Inhibition of analgesic activity by naloxone” value [21] was “not inhibited by naloxone”. The Prostaglandin synthetase inhibition [22] was “is not a prostaglandin synthetase, lipoxygenase or peroxidase inhibitor”, the ED50 ([13]; rat, p.o.) was 50 ± 0.6 mg/kg and the “Gastric damage in the rat” value ([14]; after 80 mg/kg) was “does not produce gastric damage”. The LD50 at 168 h ([8]; ip) was 250 mg/kg, the LD50 at 168 h ([8]; po) was 660 mg/kg and the “Duration of AI Activity, time in hrs to reduce 2 × CP cell ED50 to 40% inhibition of Vol.: Cells” value [9] was 6 h. For the same compound, the ED50 [9, 25] was 34 ± 2.2 mg/kg, the ED50 ([9]; dose reducing neutrophils mobilized at 3 hrs by 50%, read-out: CPA ED50, Cells) was 49 ± 6.8 mg/kg and the “Duration of AI Activity, time in hrs to reduce 2 × CP cell ED50 to 40% inhibition of Vol.: Vol.” value [9] was 6 h. For the same compound, the “Anti-inflammatory activity in the rat” value ([9]; carrageenin pleurisy assay) was “comparable with aspirin”, the “CPA Local activity” value ([9]; local) was “Inactive” and the “Gastric damage associated with aspirin-like drugs” value [23] was “does not produce the gastric damage”. The “Activity in hot plate assay” value [15] was “inactive”, the LD50 at 168 h ([10]; ip, 7 day observation) was 410 mg/kg and the LD50 at 168 h ([10]; po, 7 day observation) was 1000 mg/kg. The Peroxidase inhibition [24] was “is not a prostaglandin synthetase, lipoxygenase or peroxidase inhibitor”, the “Activity in trypsin hyperalgesic assay, I.C.V.” value ([11]; injected intracerebroventricularly (I.C.V.)) was “inactive” and the ED50 ([11]; rat hindlimb, p.o.) was 20 ± 5.1 mg/kg. For the same compound, the “Duration of Analgesia, time in hours to reduce -1.5 × THA ED50 to 40% inhibition” value ([11]; p.o.) was 8.0 h, the “Methemoglobinemia (Cyanosis)” value [12] was “No” and the Methemoglobinaemia ([12]; rats, high oral doses) was “not been shown”.

For `CN1CC[C@]23c4c5ccc(O)c4O[C@H]2[C@@H](O)C=C[C@H]3[C@H]1C5` [Morphine], the “Activity in hot plate assay” value [15] was “active”.

With `CCOc1ccc(NC(C)=O)cc1` [Phenacetin, p-ethoxyacetanilide] the “Hepatic Gluathione Depletion” value [1] was “+ (90% depletion over a 5 hr period)”, the ED50 [2] was 55 ± 28.6 mg/kg and the “Histopathology, Mouse Kidney” value ([18]; @ 40% LD50, i.p.) was “-”. For the same compound, the “Histopathology, Mouse Liver” value ([18]; @ 40% LD50, i.p.) was “-”, the “Methemoglobinemia (Cyanosis)” value ([3]; @ 100 mg/kg p.o.) was “Yes” and the Methemoglobinaemia ([3]; relatively low dose levels) was “produces severe methemoglobinaemia at relatively low dose levels”. For the same compound, the “AI Activity in Adrex, Cells” value [5] was “Inactive”, the “Histopathology, Rat Kidney” value [20] was “-” and the “Histopathology, Rat Liver” value [20] was “-”. For the same compound, the ED50 ([13]; Rattus norvegicus) was 46 ± 10.1 mg/kg, the ED50 ([7]; Mus musculus) was 116 ± 14.5 mg/kg and the LD50 at 168 h ([8]; ip) was 620 mg/kg. The LD50 at 168 h ([8]; po) was 2500 mg/kg, the “Duration of AI Activity, time in hrs to reduce 2 × CP cell ED50 to 40% inhibition of Vol.: Cells” value [9] was 7.0 h and the ED50 ([9]; 3 h, read-out: CPA ED50, Cells) was 110 ± 15.5 mg/kg. The ED50 ([9]; 3 h, read-out: CPA ED50, Vol.) was 102 ± 14.6 mg/kg, the “Duration of AI Activity, time in hrs to reduce 2 × CP cell ED50 to 40% inhibition of Vol.: Vol.” value [9] was 10.5 h and the “CPA Local activity” value ([9]; local) was “Inactive”. The LD50 at 168 h ([10]; ip, 7 day observation) was 900 mg/kg, the LD50 at 168 h ([10]; po, 7 day observation) was 2900 mg/kg and the ED50 ([11]; Rattus norvegicus) was 69 ± 11.6 mg/kg. The “Duration of Analgesia, time in hours to reduce -1.5 × THA ED50 to 40% inhibition” value ([11]; p.o.) was 5.7 h and the “Methemoglobinemia (Cyanosis)” value [12] was “Yes”.
